One series relates to XBP1s. Put plainly: 3xUPRE-regulated luciferase reporter, FLAG-XBP1s expressing cells. The class given is cell-based, human. To be noted: HeLa. As for the experimental part: Luciferase Assays. Approximately 2×10^4 HeLa cells were seeded in the each well of a 96-well plate. […] Cells were then lysed in diluted cell culture lysis 5× buffer (Promega). 1× luciferase reagents (1 mM D-luciferin, 3 mM ATP, 15 mM MgSO4, 30 mM HEPES pH=7.8) were then added and the mixtures were read for luminescence. For hypoxia response experiments, cells were transfected with 5×HRE-luc (PGK1-derived HRE promoter, Addgene, 128095) vector using Lipofectamine 3000 (Invitrogen) for 4 hrs and then treated with STR22 under 1% 02 (hypoxia) for 24 hrs. Luminescence was read following the aforementioned protocol.
(In general: Reporter assays use an easily measured gene product as a stand-in for the process of interest.)

Another series concerns HeLa cells. Put plainly: Fluorescence microscopy of cell penetration. Format: cell-based, human. As for the experimental part:
HeLa cells were treated with STR4-FITC (FIG. 4) or STR22-FITC (FIG. 5), at 5 μM for up to 24 hours. […] STR22 was retained at high levels for at least 24 hours following cell treatment.
Fluorescence Microscopy and Quantitative Analysis. HeLa cells were seeded in 12-well chamber slides with 2,500 cells per well (Ibidi, 81201). Once cells reached 40-50% confluency, they were treated with either DMSO, or 5 μM FITC-labeled STR for indicated durations. For shorter treatment times (<24 hrs), cells were grown to 70-80% confluency before start of treatment.
At the end of treatment, cells were washed with phosphate buffered saline (PBS) four times, fixed with 4% formaldehyde in PBS at room temperature for 10 mins, and then washed twice with PBS. Nuclei were labeled with DAPI (Thermo, D1306) in PBS at room temperature for 3 mins. Rubber gaskets and chambers were removed, and slides were dried in the dark at room temperature. When dry, cover glass (Fisher, #12-545 M) was mounted with 50 μL anti-fade mounting solution (Invitrogen, P36961), and sealed with nail polish. A Leica SP8 Laser Scanning Confocal with HyD detectors was used to image a single focal plane to accurately detect the DAPI and FITC signal. Identical microscope acquisition parameters were set and used within experiments to control for exposure. […] Loss-less TIFF files were employed to quantify fluorescence intensity.

The test system of the next series is UPRE consensus sequence. Kind of series: Competitive EMSA with unlabeled UPRE consensus oligo. Format: binding. The method, then:
(§1) The DNA binding dimer STR22 (shown in FIG. 21 and FIG. 27) was synthesized. STR22 was subjected to EMSA to measure binding to either the UPR element (UPRE) or AP-1 binding site (AP-1).
(§2) Electrophoretic Mobility Shift Assays (EMSAs): For direct DNA binding experiments, STRs were serially diluted at 10× concentration in water and then 1 μL of STR solution was added to 9 μL of 5 nM IRD700-labeled DNA probe bearing either a UPRE or AP-1 motif in a final 1×binding buffer (20 mM HEPES pH 8.0, 150 mM NaCl, 5% glycerol, 1 mM EDTA, 2 mM MgCl2, 0.5 mg/mL BSA, 1 mM DTT, 0.05% NP-40). Samples were incubated for 1 hr at RT. 5 μL of each reaction was loaded on an 8% acrylamide, 0.5×TBE gel equilibrated to 4° C. Samples were resolved for 60 min at 110 V and 4° C. with 0.5×TBE+1 mM MgCl2 running buffer. Gels were pre-run at 110 V for 15 min prior to sample loading. For competition experiments, 30 or 60 nM STRs and 5 nM labeled UPRE probe were incubated with 0, 7.8, 13, 21.6, 36, 60 or 100 nM unlabeled competitor oligo for 1 hr at RT. Gels were imaged using a Li—COR Odyssey. ImageJ was used to quantify band intensity and the fraction of bound DNA was calculated by dividing the band intensity of bound DNA by the band intensity of free DNA from the vehicle treated lane. A four-parameter dose-response curve fit to a plot of normalized fraction bound DNA vs. log STR concentration yielded an the apparent KD. Mobility shift data were excluded from analysis when higher order binding species were observed.
A general note: Mobility shift assays separate free from complexed probe on a gel.

For the next series, the system named is AP-1 site. Kind of series: EMSA, direct binding to AP-1 DNA probe.
Source text: as §1
bZIP transcriptional repressors FJSTR7 (shown in FIGS. 42 and 45), FJSTR71 (shown in FIGS. 52 and 53), and FJSTR72 (shown in FIGS. 52 and 54), were generated and tested.
as §2, with “Gels were imaged using a Li—COR Odyssey.” left out, “A four-parameter dose-response curve fit to a plot of normalized fraction bound DNA vs. log STR concentration yielded an the apparent KD. Mobility shift data were excluded from analysis when higher order binding species were observed.” left out

Read-outs that look alike come from different tables or passages of the source.

One may read the IC50 as the concentration needed to halve the response being measured. By Ki is commonly meant a measure of affinity in units of concentration, obtained from inhibition or displacement. Consider “XBP1-derived stapled dimer: RRK^KNR^AAQTARDRKKA#LSELEQQVVDLE linked to RRK^KNR^AAQTARDRKKARLSEL#QQVVDLE; FIG. 27 [STR22]”, for which, in the series with XBP1s (2.5-20 μM, 12 hours), the “luciferase reporter expression, FLAG-XBP1s” value is listed as “inhibition of luciferase expression”. In addition, the IC50 in the series with XBP1s (FLAG-XBP1s, 24 hours, read-out: IC50, XBP1s-induced UPRE reporter signal) worked out at 7400 ± 3500 nM. Moreover, the “intracellular distribution / fluorescence (confocal)” value in the series with HeLa cells (FITC-labeled analogs, 12 hours) was “distributed throughout both cytosolic and nuclear compartments”. Moreover, the “penetration of HeLa cells” value with HeLa cells (FITC-labeled, 5 μM, up to 24 hours) is given as “penetration”. Besides, in the series with UPRE consensus sequence, the “competition by excess unlabeled UPRE oligonucleotide” value is listed as “potently competed with excess unlabeled UPRE oligonucleotide”. Further, the inhibitory constant (Ki) turned out to be 28.6 nM at UPRE consensus sequence (read-out: Ki for the consensus sequence (EMSA)) and 28.6 nM on UPRE consensus sequence (unit inferred, read-out: Ki, consensus sequence (FIG. 3 legend)). For the same substance, the “binding to control AP1 motif oligonucleotide” value with AP-1 site was “undetectable binding”.

The values are drawn from patent US20250136650A1, “COMPOSITIONS AND METHODS FOR DNA BINDING AND TRANSCRIPTIONAL REGULATION” (THE UNIVERSITY OF CHICAGO, priority 2021, published 2025).
